In experiment [1] the test system is MV-4-11 (biphenotypic B myelomonocytic leukemia) cells. As to the kind of experiment: In vitro cell proliferation assay (CellTiter-Glo). It is filed as cell-based. The following applies: Homo sapiens, MV4-11, MV-4-11 cells, 72 hours. The procedure:
In vitro Cell Proliferation Assay
MV-4-11 (biphenotypic B myelomonocytic leukemia) cells (1250 cells/well) were seeded in white 384 well-plates in complete medium (RPMI 1640 or EMEM plus 10% Fetal bovine serum) and treated with compounds dissolved in 0.1% DMSO, 24 h after seeding. The cells were incubated at 37° C. and 5% CO2 and after 72 hours the plates were processed using CellTiter-Glo assay (Promega) following the manufacturer's instruction.
CellTiter-Glo is a homogenous method based on the quantification of the ATP present, an indicator of metabolically active cells. ATP is quantified using a system based on luciferase and D-luciferin resulting into light generation. The luminescent signal is proportional to the number of cells present in culture.
Briefly 25 μl/well reagent solution were added to each wells and after 5 minutes shacking microplates were red by Envision (PerkinElmer) luminometer. The luminescent signal was proportional to the number of cells present in culture.
Inhibitory activity was evaluated comparing treated versus control data using Assay Explorer (MDL) program. IC50 was calculated using sigmoidal interpolation curve.

Experiment [2] addresses Full-length human PIM1 (Homo sapiens (Human), UniProt P11309). As to the kind of experiment: Biochemical assay for inhibitors of PIM1 kinase activity (33P trans-phosphorylation, Dowex). The note with it: ATP 200 μM, Aktide 25 μM, enzyme 1 nM; read-out: PIM-1 IC50. The protocol:
The short forms and abbreviations used herein have the following meaning: • Ci Curie • DMSO dimethylsulfoxide • KDa kiloDalton • microCi microCurie • mg milligram • microg microgram • ng nanogram • L liter • mL milliliter • μL microliter • M molar • mM millimolar • μM micromolar • nM nanomolar Biochemical Assay for Inhibitors of PIM1 Kinase Activity
The inhibitory activity of putative kinase inhibitors and the potency of selected compounds were determined using a trans-phosphorylation assay.
Specific peptide or protein substrates are trans-phosphorylated by their specific ser-thr or tyr kinase in the presence of ATP traced with ^33P-γ-ATP, and in the presence of their own optimal buffer and cofactors.
At the end of the phosphorylation reaction, more than 98% unlabeled ATP and radioactive ATP is captured by an excess of the ion exchange Dowex resin; the resin then settles down to the bottom of the reaction plate by gravity. Supernatant is subsequently withdrawn and transferred into a counting plate, then evaluated by β-counting.
The buffer for PIM1 assay was composed of HEPES 50 mM, at pH 7.5, with 10 mM MgCl2, 1 mM DTT, 3 μM NaVO3, and 0.2 mg/mL BSA.
Full-length human PIM1 was expressed and purified as described in Bullock A N, et al., J. Biol. Chem. 2005, 280, 41675-82.
ATP concentration: 200 μM
Enzyme concentration: 1 nM
Substrate concentration Aktide (Chemical Abstract Service Registry Number 324029-01-8): 25 μM
The test mix consisted of: • 1) 3× Enzyme mix (done in Kinase Buffer 3×), 5 μL/well • 2) 3× substrate and ATP mix (done in ddH2O), together with ^33P-γ-ATP, 5 μL/well • 3) 3× test compounds (diluted into ddH2O-3% DMSO)—5 μL/well
An automated station (Biomek FX, Beckman) was used for serial dilutions, producing 1:3 dilutions in 100% DMSO, from line A1 to A10, for all the compounds in the column. […] In a standard experiment, the highest concentration (3×) of compounds is typically 30 μM, while the lowest one is typically 1.5 nM. Each 384-well plate generates at least one curve of the standard inhibitor staurosporine and reference wells (total enzyme activity vs. no enzymatic activity) for evaluation of Z′ and signal to background (SIB) ratio.
384-well plates, V bottom (test plates) are prepared with 5 μl of compound diluted as previously described (3×) and then placed onto a PlateTrak 12 robotized station (Perkin Elmer; the robot has one 384-tip pipetting head for assay start, plus one 96-tip head for dispensing resin) together with one reservoir for Enzyme mix (3×) and one for ATP mix (3×).
Data are analyzed by an internally customized version of the “Assay Explorer” SW package, which provides sigmoidal fitting of the ten-dilution curves for IC50 determination in secondary assay/hit confirmation routines.

The target of experiment [3] is Full-length human PIM2 (Homo sapiens (Human), UniProt Q9P1W9). As to the kind of experiment: PIM2 kinase inhibition assay: Dowex technique. Format: biochemical. The following applies: ATP 4 μM, Aktide 5 μM, enzyme 1.5 nM; read-out: PIM-2 IC50. The protocol:
Method for PIM2 Kinase Inhibition Assay: Dowex Technique
The buffer for PIM2 assay was composed of HEPES 50 mM, at pH 7.5, with 1 mM MgCl2, 1 mM DTT, 3 μM Na3VO4, and 0.2 mg/mL BSA.
Full-length human PIM2 was expressed and purified as described in Fedorov O, et al., PNAS 2007 104, 51, 20523-28.
Enzyme concentration=1.5 nM
Aktide substrate (Chemical Abstract Service Registry Number 324029-01-8)=5 μM
See above: same procedure as described for PIM1.

Our source for the IC50 values is patent US9145418B2, “Substituted 3,4-dihydropyrrolo[1,2-a]pyrazin-1(2H)-ones as protein kinase inhibitors” (NERVIANO MEDICAL SCIENCES S.R.L., priority 2011, dated 2015).

Chain of Full-length human PIM2 (Q9P1W9 whole entry): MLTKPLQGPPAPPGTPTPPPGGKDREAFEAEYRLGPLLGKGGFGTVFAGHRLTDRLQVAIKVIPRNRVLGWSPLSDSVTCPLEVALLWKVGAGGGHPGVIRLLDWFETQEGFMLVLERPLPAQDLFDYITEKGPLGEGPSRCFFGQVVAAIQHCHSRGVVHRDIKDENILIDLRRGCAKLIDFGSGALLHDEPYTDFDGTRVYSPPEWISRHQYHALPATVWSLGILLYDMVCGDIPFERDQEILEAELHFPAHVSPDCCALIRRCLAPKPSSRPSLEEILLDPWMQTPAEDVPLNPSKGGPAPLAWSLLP
Chain of Full-length human PIM1 (P11309 whole entry): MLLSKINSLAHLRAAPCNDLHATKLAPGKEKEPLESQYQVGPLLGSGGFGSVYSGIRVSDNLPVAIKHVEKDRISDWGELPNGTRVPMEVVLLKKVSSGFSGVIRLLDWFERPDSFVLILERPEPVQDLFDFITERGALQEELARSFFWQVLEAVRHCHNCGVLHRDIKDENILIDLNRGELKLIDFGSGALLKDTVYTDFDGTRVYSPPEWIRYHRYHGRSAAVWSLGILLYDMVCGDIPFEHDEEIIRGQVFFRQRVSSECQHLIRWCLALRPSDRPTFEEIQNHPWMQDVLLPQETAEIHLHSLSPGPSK

Consider `CN1CCN(C[C@@H](NC(=O)C[C@H]2CNC(=O)c3cc(-c4cccc(Cl)c4)cn32)C2CCCCC2)CC1` [Compound 2, 2-[(4S)-7-(3-chlorophenyl)-1-oxo-1,2,3,4-tetrahydropyrrolo[1,2-a]pyrazin-4-yl]-N-[(1S)-1-cyclohexyl-2-(4-methylpiperazin-1-yl)ethyl]acetamide], for which the IC50 in experiment [1] was determined as 1530 nM; in experiment [2], 1 nM.
`CN(C)C1CCN(C[C@@H](NC(=O)C[C@H]2CNC(=O)c3cc(-c4ccnc(F)c4)cn32)C2CCCCC2)CC1` [Compound 10, N-{(1S)-1-cyclohexyl-2-[4-(dimethylamino)piperidin-1-yl]ethyl}-2-[(4S)-7-(2-fluoropyridin-4-yl)-1-oxo-1,2,3,4-tetrahydropyrrolo[1,2-a]pyrazin-4-yl]acetamide]: the IC50 in experiment [1] turned out to be 6750 nM; in experiment [3], 57 nM; in experiment [2], 6 nM.
For `CN(C)C1CCN(C[C@@H](NC(=O)C[C@H]2CNC(=O)c3cc(-c4cccc(Cl)c4)cn32)C2CCCCC2)CC1` [Compound 23, 2-[(4S)-7-(3-chlorophenyl)-1-oxo-1,2,3,4-tetrahydropyrrolo[1,2-a]pyrazin-4-yl]-N-{(1S)-1-cyclohexyl-2-[4-(dimethylamino)piperidin-1-yl]ethyl}acetamide], the IC50 came to 1130 nM in experiment [1], 36 nM in experiment [3] and 1 nM in experiment [2].
For `CN1CCN(C[C@@H](NC(=O)C[C@H]2CNC(=O)c3cc(-c4cc(Cl)ccc4F)cn32)C2CCCCC2)CC1` [Compound 26, 2-[(4S)-7-(5-chloro-2-fluorophenyl)-1-oxo-1,2,3,4-tetrahydropyrrolo[1,2-a]pyrazin-4-yl]-N-[(1S)-1-cyclohexyl-2-(4-methylpiperazin-1-yl)ethyl]acetamide], in that order: 1160 nM, 132 nM and 2 nM.
For `CN(C)C1CCN(C[C@@H](NC(=O)C[C@H]2CNC(=O)c3cc(-c4ccc(F)c(F)c4)cn32)C2CCCCC2)CC1` [Compound 6, N-{(1S)-1-cyclohexyl-2-[4-(dimethylamino)piperidin-1-yl]ethyl}-2-[(4S)-7-(3,4-difluorophenyl)-1-oxo-1,2,3,4-tetrahydropyrrolo[1,2-a]pyrazin-4-yl]acetamide], in that order: 3150 nM, 171 nM and 8 nM.
